Source: patent US9085550B2, “Ligands for estrogen related receptors and methods for synthesis of said ligands” (CITY OF HOPE, priority 2005, dated 2015)

Tests used:
[1] = target: T1, HRHN-GAL (yeast GAL4 DNA binding domain without receptor sequences) (Saccharomyces cerevisiae, UniProt P04386); assay: GAL4 reporter transactivation assay in CV-1 cells, control vector without receptor; format: cell-based, monkey
T1 construct: expressed in transfected cells; host or cells: CV-1

human ERβ = target: T2, human ERβ (Homo sapiens, UniProt Q92731); assay: ERE-TK-luc reporter transactivation assay in CV-1 cells, full-length hERb; format: cell-based
T2 construct: Human ERα and ERβ were examined as full-length proteins using an estrogen receptor responsive reporter construct; expressed in transfected cells; host or cells: CV-1
Protocol: (§1) Human ERα and ERβ were examined as full-length proteins using an estrogen receptor responsive reporter construct.
(§2) Suitable reporter gene constructs are well known to skilled workers in the fields of biochemistry and molecular biology. […] Other vectors known in the art can be used in the methods of the present invention.
(§3) CV-1 cells for the activation assays were grown in Dulbecco's modified Eagle's medium supplemented with 10% resin charcoal-stripped fetal bovine serum, 50 U/ml penicillin G and 50 μg/ml streptomycin sulfate (DMEM-FBS) at 37° C. in 5% CO2. One day prior to transfection, cells were plated to 50-80% confluence using phenol red free DMEM-FBS.

human ERα = target: T3, human ERα (Homo sapiens, UniProt P03372); assay: ERE-TK-luc reporter transactivation assay in CV-1 cells, full-length hERa; format: cell-based
T3 construct: Human ERα and ERβ were examined as full-length proteins using an estrogen receptor responsive reporter construct; expressed in transfected cells; host or cells: CV-1
T3 sequence (P03372 1-595): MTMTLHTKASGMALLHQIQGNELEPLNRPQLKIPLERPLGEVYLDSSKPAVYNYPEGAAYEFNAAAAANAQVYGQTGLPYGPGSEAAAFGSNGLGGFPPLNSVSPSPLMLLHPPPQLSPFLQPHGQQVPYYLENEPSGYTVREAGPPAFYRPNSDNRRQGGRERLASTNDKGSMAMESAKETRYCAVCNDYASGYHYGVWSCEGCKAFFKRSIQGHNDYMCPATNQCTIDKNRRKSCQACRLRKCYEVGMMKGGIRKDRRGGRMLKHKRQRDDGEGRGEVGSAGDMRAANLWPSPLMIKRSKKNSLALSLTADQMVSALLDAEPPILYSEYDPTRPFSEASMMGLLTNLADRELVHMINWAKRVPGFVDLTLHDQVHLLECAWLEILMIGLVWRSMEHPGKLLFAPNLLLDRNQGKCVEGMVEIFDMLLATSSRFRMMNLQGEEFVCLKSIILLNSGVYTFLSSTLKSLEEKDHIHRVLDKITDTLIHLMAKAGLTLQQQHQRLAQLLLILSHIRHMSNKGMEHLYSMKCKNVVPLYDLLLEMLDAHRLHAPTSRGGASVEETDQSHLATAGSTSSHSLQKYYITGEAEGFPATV
Protocol: as §1, §2, §3

[2] = target: T4, GAL-mERRg (mouse ERRγ ligand binding domain fused to GAL4 DNA binding domain) (Mus musculus, UniProt P62509); assay: GAL4 reporter transactivation assay in CV-1 cells, GAL-mERRg; format: cell-based
T4 construct: expressed in transfected cells; host or cells: CV-1
T4 sequence (P62509 233-457 limits assumed): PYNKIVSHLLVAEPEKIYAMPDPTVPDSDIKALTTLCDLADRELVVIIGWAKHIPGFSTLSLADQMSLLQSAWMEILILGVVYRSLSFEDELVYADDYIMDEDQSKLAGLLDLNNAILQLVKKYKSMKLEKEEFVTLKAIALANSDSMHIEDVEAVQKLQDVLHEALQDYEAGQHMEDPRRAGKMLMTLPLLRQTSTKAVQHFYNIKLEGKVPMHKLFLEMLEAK

[3] = target: T5, GAL-L-hERRb (human ERRβ ligand binding domain fused to GAL4 DNA binding domain) (Homo sapiens, UniProt O95718); assay: GAL4 reporter transactivation assay in CV-1 cells, GAL-L-hERRb; format: cell-based
T5 construct: expressed in transfected cells; host or cells: CV-1
T5 sequence (O95718 208-432 limits assumed): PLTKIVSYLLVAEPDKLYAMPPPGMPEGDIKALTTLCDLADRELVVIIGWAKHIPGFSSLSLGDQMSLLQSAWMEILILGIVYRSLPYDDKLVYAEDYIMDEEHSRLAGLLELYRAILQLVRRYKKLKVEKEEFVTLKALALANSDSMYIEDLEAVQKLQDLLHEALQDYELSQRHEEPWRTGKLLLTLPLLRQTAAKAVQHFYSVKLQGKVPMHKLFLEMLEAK

[4] = target: T6, GAL-hERRa (human ERRα ligand binding domain fused to GAL4 DNA binding domain) (Homo sapiens, UniProt P11474); assay: GAL4 reporter transactivation assay in CV-1 cells, GAL-hERRa; format: cell-based
T6 construct: expressed in transfected cells; host or cells: CV-1
T6 sequence (P11474 193-421 limits assumed): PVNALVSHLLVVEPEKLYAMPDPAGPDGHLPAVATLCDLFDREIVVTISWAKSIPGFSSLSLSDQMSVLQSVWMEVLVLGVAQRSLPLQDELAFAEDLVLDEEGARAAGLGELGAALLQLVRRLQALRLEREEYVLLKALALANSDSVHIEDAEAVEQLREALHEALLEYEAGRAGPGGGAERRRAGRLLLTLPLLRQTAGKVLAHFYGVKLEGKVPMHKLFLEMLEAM

ERRγ = target: T7, ERRγ (Homo sapiens, UniProt P62508); conditions: background statement; cited from earlier work
T7 sequence (P62508 1-458): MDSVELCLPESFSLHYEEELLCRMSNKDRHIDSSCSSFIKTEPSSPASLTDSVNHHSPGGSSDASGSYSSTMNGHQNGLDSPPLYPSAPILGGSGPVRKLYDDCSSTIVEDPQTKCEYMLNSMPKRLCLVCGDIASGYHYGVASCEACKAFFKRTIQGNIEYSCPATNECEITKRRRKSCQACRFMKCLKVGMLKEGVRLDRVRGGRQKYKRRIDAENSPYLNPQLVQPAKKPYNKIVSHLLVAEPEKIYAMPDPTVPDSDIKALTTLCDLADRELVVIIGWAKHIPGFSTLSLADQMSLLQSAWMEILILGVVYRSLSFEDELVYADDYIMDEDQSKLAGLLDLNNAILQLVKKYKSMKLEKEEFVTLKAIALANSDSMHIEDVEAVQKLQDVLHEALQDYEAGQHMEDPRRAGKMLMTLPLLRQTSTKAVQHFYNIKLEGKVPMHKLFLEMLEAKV

[5] = CV-1, reporter 0.42:vector 0.00875:PGC-1a 0.035, 30 μM
[6] = CV-1, reporter 0.42:vector 0.00875, no PGC-1a, 30 μM

T1 sequence (P04386 1-147): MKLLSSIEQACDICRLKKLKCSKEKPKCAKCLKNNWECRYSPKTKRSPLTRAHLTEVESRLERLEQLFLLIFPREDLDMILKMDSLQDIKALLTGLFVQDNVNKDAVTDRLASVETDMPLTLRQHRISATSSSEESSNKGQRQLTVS
T2 sequence (Q92731 whole entry): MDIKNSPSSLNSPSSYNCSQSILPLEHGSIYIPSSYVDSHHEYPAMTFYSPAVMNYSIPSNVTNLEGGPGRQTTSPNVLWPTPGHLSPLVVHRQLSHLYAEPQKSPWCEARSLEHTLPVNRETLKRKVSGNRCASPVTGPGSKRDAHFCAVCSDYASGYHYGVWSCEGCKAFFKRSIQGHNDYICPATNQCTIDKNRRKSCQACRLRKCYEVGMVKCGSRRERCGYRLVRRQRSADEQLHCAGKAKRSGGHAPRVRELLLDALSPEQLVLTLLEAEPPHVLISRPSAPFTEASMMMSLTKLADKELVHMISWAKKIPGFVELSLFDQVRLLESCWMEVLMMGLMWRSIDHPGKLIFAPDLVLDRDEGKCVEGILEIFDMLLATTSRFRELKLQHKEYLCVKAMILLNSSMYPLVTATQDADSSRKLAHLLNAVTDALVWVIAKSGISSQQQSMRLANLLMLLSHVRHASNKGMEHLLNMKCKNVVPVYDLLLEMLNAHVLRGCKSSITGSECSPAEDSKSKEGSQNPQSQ

CCc1ccc(C=NNC(=O)c2ccc(O)cc2)s1 [DY164, 4-Hydroxy-benzoic acid (5-ethyl-thiophen-2-ylmethylene)-hydrazide]
Fold activation, HRHN-GAL ([1]; reporter 0.42:vector 0.00875, no PGC-1a, 30 μM): 1.46 fold
Fold activation, HRHN-GAL + PGC-1a ([1]; reporter 0.42:vector 0.00875:PGC-1a 0.035, 30 μM): 1.62 fold
melting point: 194.5 °C
Fold Activation, ERE-TK-luc, hERb (human ERβ; Table 7, CV-1, drug conc 30 μM): 1.74 fold
Activation of ERb (human ERβ; specificity for ERRs): do not activate
Fold Activation, ERE-TK-luc, hERa (human ERα; Table 7, CV-1, drug conc 30 μM): 1.30 fold
Activation of ERa (human ERα; specificity for ERRs): do not activate
Fold activation, GAL-mERRg + PGC-1a [2, 5]: 2.45 fold
Fold activation, GAL-mERRg [2, 6]: 2.10 fold
Activation of ERRγ ([2]; in the presence of PGC-1a): can activate
Fold activation, GAL-L-hERRb + PGC-1a [3, 5]: 2.34 fold
Fold activation, GAL-L-hERRb [3, 6]: 1.89 fold
Activation of ERRβ ([3]; in the presence of PGC-1a): can activate
Fold activation, GAL-hERRa + PGC-1a [4, 5]: 2.75 fold
Fold activation, GAL-hERRa [4, 6]: 1.74 fold
Activation of ERRα ([4]; in the presence of PGC-1a): can activate

O=C(NN=Cc1cccc(C(F)(F)F)c1Cl)c1ccc(O)cc1 [DY165, 4-Hydroxy-benzoic acid (2-chloro-3-trifluoromethyl-benzylidene)-hydrazide]
melting point: 261.5 °C

Cc1ccc(C=NNC(=O)c2ccc(O)cc2)s1 [DY166, 4-Hydroxy-benzoic acid (5-methyl-thiophen-2-ylmethylene)-hydrazide]
melting point: 215.7 °C

O=C(NN=Cc1ccc(C(F)(F)F)cc1)c1ccc(O)cc1 [DY168, 4-Hydroxy-benzoic acid (4-trifluoromethyl-benzylidene)-hydrazide]
melting point: 260.5 °C

O=C(NN=Cc1ccc(C(F)(F)F)c([N+](=O)[O-])c1)c1ccc(O)cc1 [DY170, 4-Hydroxy-benzoic acid (3-nitro-4-trifluoromethyl-benzylidene)-hydrazide]
melting point: 279.6 °C

Cc1cc(C)c(C=NNC(=O)c2ccc(O)cc2)[nH]1 [DY171, 4-Hydroxy-benzoic acid (3,5-dimethyl-1H-pyrrol-2-ylmethylene)-hydrazide]
melting point: 261.2 °C

Cc1[nH]c(C=NNC(=O)c2ccc(O)cc2)c(C)c1Br [DY172, 4-Hydroxy-benzoic acid (4-bromo-3,5-dimethyl-1H-pyrrol-2-ylmethylene)-hydrazide]
melting point: 235.4 °C

Cc1cc(C=NNC(=O)c2ccc(O)cc2)oc1C [DY173, 4-Hydroxy-benzoic acid (4,5-dimethyl-furan-2-ylmethylene)-hydrazide]
melting point: 251.4 °C

CCc1ccc(C=NNC(=O)c2ccc(O)cc2)o1 [DY175, 4-Hydroxy-benzoic acid (5-ethyl-furan-2-ylmethylene)-hydrazide]
melting point: 60.5 °C

Oc1nc(Cl)nc(NN=Cc2cc(C(F)(F)F)cc(C(F)(F)F)c2)n1 [DY176, 4-[N′-(3,5-Bis-trifluoromethyl-benzylidene)-hydrazino]-6-chloro-[1,3,5]triazin-2-ol]
melting point: 258.3 °C

COc1cc(/C=C(\C#N)C(=O)Nc2nnc(C(F)(F)F)s2)ccc1OCc1ccc(C(F)(F)F)cc1C(F)(F)F [XCT790]
Activity on ERRγ (ERRγ): no activity
